Earlier results as cited in patent US20100152180A1, “4-oxo-4,5-dihydropyrrolo[1,2-A)quinoxaline derivatives as inhibitors of poly(ADP-ribose) polymerase (PARP)” (priority 2006, published 2010).

System: ischemia and reperfusion of the heart or skeletal muscle
Conditions: rabbits

Structure (SMILES)	reduction in infarct size in the heart (single injection 10 mg/kg, one minute before occlusion or one minute before reperfusion)	reduction in infarct size (single injection 1 mg/kg)
NC(=O)c1cccc(N)c1 [3-amino-benzamide]	32-42%	
Oc1cccc2c(O)nccc12 [1,5-dihydroxyisoquinoline]		38-48%
